Experimental data taken from ChEMBL document CHEMBL1147314, “A pentacyclic triterpene with anti-inflammatory and analgesic activity from the roots of Commiphora merkeri” (1989).

Columns and labels:
Rattus norvegicus [1] = experiment: Analgesic activity in rat assessed as inhibition of writhing at 100 mg/kg; type: functional
Rattus norvegicus [2] = experiment: Antiinflammatory activity in rat assessed as inhibition of carrageenan-induced edema at 100 mg/kg; type: functional

Row | SMILES | inhibition in vivo at 100 mg/kg (Rattus norvegicus [1]) [%] | inhibition in vivo at 100 mg/kg (Rattus norvegicus [2]) [%]
1 | CC1(C)CC[C@]2(C)CC[C@]3(C)C(=CC[C@@H]4[C@@]5(C)C[C@@H](O)[C@H](O)[C@@](C)(CO)[C@@H]5CC[C@]43C)[C@@H]2C1 | 37 | 28
2 | CC(=O)Oc1ccccc1C(=O)O [ASPIRIN] | 85 | –
3 | CCCCC1C(=O)N(c2ccccc2)N(c2ccccc2)C1=O [PHENYLBUTAZONE] | – | 64
